US20210355107A1, “MULTI-SUBSTITUTED PYRIDONE DERIVATIVES AND MEDICAL USE THEREOF” (Beijing Yuezhikangtai Biomedicines Co., Ltd., priority 2018, published 2021)

biological target: T1, tyrosine kinase Tyro3 (Homo sapiens, UniProt Q06418); assay: HTRF assay, inhibitory activity against tyrosine kinase Tyro3; type: biochemical; settings: ATP at Km (50 μM), two duplicate wells
T1 construct: purchased Carna 08-109
T1 sequence (Q06418 453-890 limits assumed): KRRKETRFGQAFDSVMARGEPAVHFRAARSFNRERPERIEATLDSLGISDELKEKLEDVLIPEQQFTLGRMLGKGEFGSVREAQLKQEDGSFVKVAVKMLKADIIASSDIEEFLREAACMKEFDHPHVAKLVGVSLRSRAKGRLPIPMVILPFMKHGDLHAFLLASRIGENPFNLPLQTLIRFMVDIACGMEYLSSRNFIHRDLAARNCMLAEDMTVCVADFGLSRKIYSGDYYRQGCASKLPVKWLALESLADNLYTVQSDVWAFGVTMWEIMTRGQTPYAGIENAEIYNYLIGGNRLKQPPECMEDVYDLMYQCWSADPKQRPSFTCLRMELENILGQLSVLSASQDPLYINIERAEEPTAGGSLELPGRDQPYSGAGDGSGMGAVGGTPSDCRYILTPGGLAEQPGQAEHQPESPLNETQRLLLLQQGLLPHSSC
Procedure: Test Example 2: Evaluation of Inhibitory Activity (IC50) of Compounds disclosed herein against Tyrosine Kinases Mer and Tyro3
In this test, HTRF method was used to test the inhibitory activity of compounds when ATP concentrations correspond to the Km of the kinases. The control substance was RXDX-106. The concentration of test compound was 3-fold diluted from an initial concentration of 10 μM, and two duplicate wells were set.
Kinase Mer (Carna, Cat. No. 08-108, Lot. No. 14CBS-0421H); Tyro3 (Carna, Cat. No. 08-109, Lot. No. 08CBS-1186H); HTRF kinase-TK kit (Cisbio, Cat. No. 62TK0PEC), the kit comprising: biotin-TK substrate lyophilized powder (Cisbio, Cat. No. 61TK0BLC, Lot. No. 07A), streptavidin-XL665 (Cisbio, Cat. No. 610SAXLG, Lot. No. 126A), TK antibody-cryptate (Cisbio, Cat. No. 610SAXLG, Lot. No. 04A), and detection buffer (including EDTA) (Cisbio, Cat. No. 62TK0PEC, Lot. No. 12A); ATP (Sigma, Cat. No. A7699-5G, CAS No. 34369-07-8, Lot. No. SLBQ6014V); DMSO (Sigma, Cat. No. D5879-1L, Lot. No. SHBH9944); HEPES (Sigma, Cat. No. V900477-500G, CAS No. 7365-45-9, Lot. No. WXBC4716V); MgCl2 (Sigma, Cat. No. 208337-1KG, Lot. No. MKBX9508V); EGTA (Sigma, Cat. No. E3889-100g, CAS 67-42-5, […], Lot. No. SLBG8546V); NP-40 (Beijing Dingguo, Cat. No. DH218, Lot. No. 36R00160); DTT (Sigma, Cat. No. D0632-25g, CAS No. 3483-12-3, Lot. No. SLBF3964V); compound plate (Labcyte, Cat. No. LP0200, Lot. No. 0006386836); assay plate (Greiner, Cat. No. 784075, Lot. No. E16123HM); control substance RXDX-106 (prepared according to the method disclosed in patent WO2013074633).
1) Preparation of a buffer: 50 mM HEPES, 10 mM MgCl2, 1 mM EGTA, 0.01% NP-40, 2 mM DTT.
2) Preparation of control substance and test samples: RXDX-106 and the compounds disclosed herein were each dissolved in DMSO to 10 mM and then diluted to 1 mM or an appropriate concentration with DMSO, and then serial double dilution was performed using BRAVO (Agilent). 100 nL of each was transferred from a compound plate (Labcyte-LP0200) to an assay plate (Greiner-784075) using ECHO 555 (Labcyte). The final concentration of DMSO was 1%.
3) Mer and Tyro3 were each diluted to 0.5 nM and 1.2 nM with the detection buffer (Cisbio, Cat. No. 62TK0PEC, Lot. No. 12A). 5 μL of each was added to a 384-well plate and incubated with the compounds disclosed herein for 30 min at 22-25° C. Final concentrations of Mer and Tyro3 were 0.25 nM and 0.6 nM, respectively.
4) Biotin-TK substrate and ATP were each diluted to a concentration twice the final concentration with 1× kinase buffer made up of HEPES, NaN3, BSA and orthovanadate. 5 μL of the mixture of substrate and ATP was added to the 384-well plate to initiate the reaction, which lasts for 1 h at 22-25° C.
5) Streptavidin-XL665 and TK antibody-cryptate were diluted to 250 nM and 0.5 nM, respectively, with the detection buffer. […] of each of the two solutions was added to the 384-well plate to initiate the reaction, which lasts for 1 h at 22-25° C. The final concentrations of streptavidin-XL665 and TK antibody-cryptate were 125 nM and 0.25 nM, respectively.
6) The fluorescence intensities at 665 nm and 615 nm were read with an Envision Reader (PerkinElmer) .
7) IC50 values of the compounds were fitted with XL-fit software.

SMILES	IC50
COc1cc2nccc(Oc3ccc(NC(=O)c4cn(C(C)C)c(C#N)c(-c5ccc(F)cc5)c4=O)cc3F)c2cc1OC [Example 24, 6-cyano-N-(4-((6,7-dimethoxyquinolin-4-yl)oxy)-3-fluoro-phenyl)-5-(4-fluorophenyl)-1-isopropyl-4-oxo-1,4-dihydropyridine-3-carboxamide]	15.5 nM
CCn1cc(-c2cnc(N)c(-c3ccc(NC(=O)c4cn(C(C)C)c(C#N)c(-c5ccc(F)cc5)c4=O)cc3F)c2)cn1 [Example 3, N-(4-(2-amino-5-(1-ethyl-1H-pyrazol-4-yl)pyridin-3-yl)-3-fluoro-phenyl)-6-cyano-5-(4-fluorophenyl)-1-isopropyl-4-oxo-1,4-dihydropyridine-3-carboxamide]	2.27 nM
CCn1cc(-c2cnc(N)c(-c3ccc(NC(=O)c4cn(C5CC5)c(C#N)c(-c5ccc(F)cc5)c4=O)cc3F)c2)cn1 [Example 10, N-(4-(2-amino-5-(1-ethyl-1H-pyrazol-4-yl)pyridin-3-yl)-3-fluorophenyl)-6-cyano-5-(4-fluorophenyl)-1-cyclopropyl-4-oxo-1,4-dihydropyridine-3-carboxamide]	30.2 nM
CC(C)n1cc(C(=O)Nc2ccc(-c3cc(-c4cnn(C)c4)cnc3N)c(F)c2)c(=O)c(-c2ccc(F)cc2)c1C#N [Example 4, N-(4-(2-amino-5-(1-methyl-1H-pyrazol-4-yl)pyridin-3-yl)-3-fluorophenyl)-6-cyano-5-(4-fluorophenyl)-1-isopropyl-4-oxo-1,4-dihydropyridine-3-carboxamide]	2.67 nM

Now those with a lower IC50, led by results:

IC50	SMILES
1.18 nM	CC(C)n1cc(C(=O)Nc2ccc(-c3cc(-c4cnn(C5CCNCC5)c4)cnc3N)c(F)c2)c(=O)c(-c2ccc(F)cc2)c1C#N [Example 2, N-(4-(2-amino-5-(1-(piperidin-4-yl)-1H-pyrazol-4-yl)pyridin-3-yl)-3-fluorophenyl)-6-cyano-5-(4-fluorophenyl)-1-isopropyl-4-oxo-1,4-dihydropyridine-3-carboxamide]
1.8 nM	CC(C)n1cc(C(=O)Nc2cc(F)c(-c3cc(-c4cnn(C)c4)cnc3N)cc2F)c(=O)c(-c2ccc(F)cc2)c1C#N [Example 6, N-(4-(2-amino-5-(1-methyl-1H-pyrazol-4-yl)pyridin-3-yl)-2,5-difluorophenyl)-6-cyano-5-(4-fluorophenyl)-1-isopropyl-4-oxo-1,4-dihydropyridine-3-carboxamide]
0.5 nM	CCn1cc(-c2cnc(N)c(-c3cc(F)c(NC(=O)c4cn(C(C)C)c(C#N)c(-c5ccc(F)cc5)c4=O)cc3F)c2)cn1 [Example 33, N-(4-(2-amino-5-(1-ethyl-1H-pyrazol-4-yl)pyridin-3-yl)-2,5-difluorophenyl)-6-cyano-5-(4-fluorophenyl)-1-isopropyl-4-oxo-1,4-dihydropyridine-3-carboxamide]
1.16 nM	[2H]C([2H])([2H])n1cc(-c2cnc(N)c(-c3cc(F)c(NC(=O)c4cn(C(C)C)c(C#N)c(-c5ccc(F)cc5)c4=O)cc3F)c2)cn1 [Example 34, N-(4-(2-amino-5-(1-methyl-d3-1H-pyrazol-4-yl)pyridin-3-yl)-2,5-difluorophenyl)-6-cyano-5-(4-fluorophenyl)-1-isopropyl-4-oxo-1,4-dihydropyridine-3-carboxamide]
1.77 nM	CC(C)n1cc(C(=O)Nc2ccc(-c3cc(-c4cnn(C5CCN(C)CC5)c4)cnc3N)c(F)c2)c(=O)c(-c2ccc(F)cc2)c1C#N [Example 7, N-(4-(2-amino-5-(1-(1-methylpiperidin-4-yl)-1H-pyrazol-4-yl)-pyridin-3-yl)-3-fluorophenyl)-6-cyano-5-(4-fluorophenyl)-1-isopropyl-4-oxo-1,4-dihydro-pyridine-3-carboxamide]
